Test: Absorption maximum of asymmetric sensitizers
Format: physicochemical
Source text: The asymmetric sensitizers AS-02, AS-03, AS-04 and AS-05 were obtained using a similar preparation method. The asymmetric sensitizers AS-01 to AS-05 are given in Table 2 together with their absorption maximum (Abs.Max (nm)) and their melting point (° C.).

Compound	Abs. Max [nm]
CCCCC(CC)COc1c(OC)cc(/C=C/c2ccc(/C=C/c3cc(OC)c(OC(C)CC)c(OC)c3)cc2)cc1OC (centres unmarked) [AS-01]	371
CCC(C)Oc1c(OC)cc(/C=C/c2ccc(/C=C/c3cc(OC)c(OC(CC)CC)c(OC)c3)cc2)cc1OC (centres unmarked) [AS-02]	370
CCC(C)Oc1c(OC)cc(/C=C/c2ccc(/C=C/c3cc(OC)c(OC4CCCCC4)c(OC)c3)cc2)cc1OC (centres unmarked) [AS-03]	371
CCC(C)Oc1c(OC)cc(/C=C/c2ccc(/C=C/c3cc(OC)c(OC4CCCC4)c(OC)c3)cc2)cc1OC (centres unmarked) [AS-04]	371
CCC(C)Oc1c(OC)cc(/C=C/c2ccc(/C=C/c3cc(OC)c(OCCO)c(OC)c3)cc2)cc1OC (centres unmarked) [AS-05]	371

Source: patent US20100190105A1, “LITHOGRAPHIC PRINTING PLATE PRECURSOR” (Agfa Graphics NV, priority 2007, published 2010)
